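Assay format: 96-well plates, 48-hour exposure. TGI: concentration producing complete growth inhibition.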
Experiments:
Experiment in all cases: NCI-60 cell line screen, 48 h
786-0 renal = test system: 786-0 renal
A549 NSCLC = test system: A549 NSCLC
ACHN renal = test system: ACHN renal
BT-549 breast = test system: BT-549 breast
CAKI-1 renal = test system: CAKI-1 renal
CCRF-CEM leukemia = test system: CCRF-CEM leukemia
COLO 205 colon = test system: COLO 205 colon
DU-145 prostate = test system: DU-145 prostate
EKVX NSCLC = test system: EKVX NSCLC
HCC-2998 colon = test system: HCC-2998 colon
HCT-116 colon = test system: HCT-116 colon
HCT-15 colon = test system: HCT-15 colon
HOP-62 NSCLC = test system: HOP-62 NSCLC
HOP-92 NSCLC = test system: HOP-92 NSCLC
HS 578T breast = test system: HS 578T breast
HT29 colon = test system: HT29 colon
IGROV1 ovarian = test system: IGROV1 ovarian
K-562 leukemia = test system: K-562 leukemia
KM12 colon = test system: KM12 colon
M14 melanoma = test system: M14 melanoma
MCF7 breast = test system: MCF7 breast
MDA-MB-231 breast = test system: MDA-MB-231 breast
MDA-MB-435 = test system: MDA-MB-435
MDA-N = test system: MDA-N
MOLT-4 leukemia = test system: MOLT-4 leukemia
NCI-H23 lung = test system: NCI-H23 lung
NCI-H460 lung = test system: NCI-H460 lung
NCI-H522 lung = test system: NCI-H522 lung
NCI/ADR-RES ovarian = test system: NCI/ADR-RES ovarian
OVCAR-3 ovarian = test system: OVCAR-3 ovarian
OVCAR-4 ovarian = test system: OVCAR-4 ovarian
OVCAR-5 ovarian = test system: OVCAR-5 ovarian
OVCAR-8 ovarian = test system: OVCAR-8 ovarian
PC-3 prostate = test system: PC-3 prostate
RPMI-8226 leukemia = test system: RPMI-8226 leukemia
RXF 393 renal = test system: RXF 393 renal
SF-268 CNS = test system: SF-268 CNS
SF-295 CNS = test system: SF-295 CNS
SF-539 CNS = test system: SF-539 CNS
SK-MEL-2 melanoma = test system: SK-MEL-2 melanoma
SK-MEL-28 melanoma = test system: SK-MEL-28 melanoma
SK-MEL-5 melanoma = test system: SK-MEL-5 melanoma
SK-OV-3 ovarian = test system: SK-OV-3 ovarian
SN12C renal = test system: SN12C renal
SNB-19 CNS = test system: SNB-19 CNS
SNB-75 CNS = test system: SNB-75 CNS
SR leukemia = test system: SR leukemia
SW-620 colon = test system: SW-620 colon
U251 CNS = test system: U251 CNS
UACC-257 melanoma = test system: UACC-257 melanoma
UACC-62 melanoma = test system: UACC-62 melanoma
UO-31 renal = test system: UO-31 renal

COC(=O)C(C)(C)OCc1ccc(C2NC(=O)N(c3cccc(Cl)c3)C(=O)N2c2cccc(Cl)c2)cc1 (configuration not stated)
TGI (786-0 renal): > 100 µM
TGI (A549 NSCLC): > 100 µM
TGI (ACHN renal): > 100 µM
TGI (BT-549 breast): > 100 µM
TGI (CAKI-1 renal): > 100 µM
TGI (CCRF-CEM leukemia): > 100 µM
TGI (COLO 205 colon): > 100 µM
TGI (DU-145 prostate): > 100 µM
TGI (EKVX NSCLC): 78.8 µM
TGI (HCC-2998 colon): > 100 µM
TGI (HCT-116 colon): > 100 µM
TGI (HCT-15 colon): > 100 µM
TGI (HOP-62 NSCLC): > 100 µM
TGI (HOP-92 NSCLC): 69.7 µM
TGI (HS 578T breast): 44.4 µM
TGI (HT29 colon): > 100 µM
TGI (IGROV1 ovarian): > 100 µM
TGI (K-562 leukemia): > 100 µM
TGI (KM12 colon): > 100 µM
TGI (M14 melanoma): > 100 µM
TGI (MCF7 breast): > 100 µM
TGI (MDA-MB-231 breast): > 100 µM
TGI (MDA-MB-435): > 100 µM
TGI (MDA-N): > 100 µM
TGI (MOLT-4 leukemia): > 100 µM
TGI (NCI-H23 lung): 22.1 µM
TGI (NCI-H460 lung): > 100 µM
TGI (NCI-H522 lung): 76.8 µM
TGI (NCI/ADR-RES ovarian): > 100 µM
TGI (OVCAR-3 ovarian): > 100 µM
TGI (OVCAR-4 ovarian): > 100 µM
TGI (OVCAR-5 ovarian): > 100 µM
TGI (OVCAR-8 ovarian): > 100 µM
TGI (PC-3 prostate): > 100 µM
TGI (RPMI-8226 leukemia): > 100 µM
TGI (RXF 393 renal): > 100 µM
TGI (SF-268 CNS): > 100 µM
TGI (SF-295 CNS): > 100 µM
TGI (SF-539 CNS): > 100 µM
TGI (SK-MEL-2 melanoma): > 100 µM
TGI (SK-MEL-28 melanoma): > 100 µM
TGI (SK-MEL-5 melanoma): 52.8 µM
TGI (SK-OV-3 ovarian): > 100 µM
TGI (SN12C renal): > 100 µM
TGI (SNB-19 CNS): > 100 µM
TGI (SNB-75 CNS): 6.95 µM
TGI (SR leukemia): 96.6 µM
TGI (SW-620 colon): > 100 µM
TGI (U251 CNS): > 100 µM
TGI (UACC-257 melanoma): > 100 µM
TGI (UACC-62 melanoma): > 100 µM
TGI (UO-31 renal): > 100 µM
